Assay [1] addresses Calcium/calmodulin-dependent protein kinase type II subunit alpha (Homo sapiens) (UniProt Q9UQM7).
The target in assay [2] is Calcium/calmodulin-dependent protein kinase type II subunit delta (Homo sapiens) (UniProt Q13557).
Assay [3] deals with Calcium/calmodulin-dependent protein kinase kinase 2 (Homo sapiens, UniProt Q96RR4).
The target of assay [4] is Cyclin-dependent kinase-like 1 (Homo sapiens) (UniProt Q00532).
Assay [5] deals with Dual specificity protein kinase CLK1 (Homo sapiens) (UniProt P49759).
Assay [6] has as its target Dual specificity protein kinase CLK2 (Homo sapiens) (UniProt P49760).
Assay [7] deals with Dual specificity protein kinase CLK3 (Homo sapiens) (UniProt P49761).
For assay [8], the target named is Casein kinase I isoform gamma-1 (Homo sapiens) (UniProt Q9HCP0).
Assay [9] has as its target Casein kinase I isoform gamma-3 (Homo sapiens) (UniProt Q9Y6M4).
Assay [10] addresses Serine/threonine-protein kinase Nek6 (Homo sapiens) (UniProt Q9HC98).
In assay [11] the target is Serine/threonine-protein kinase OSR1 (Homo sapiens) (UniProt O95747).
In assay [12] the target is T1, 3-phosphoinositide-dependent protein kinase 1 (Homo sapiens) (UniProt O15530).
T1 sequence (whole entry): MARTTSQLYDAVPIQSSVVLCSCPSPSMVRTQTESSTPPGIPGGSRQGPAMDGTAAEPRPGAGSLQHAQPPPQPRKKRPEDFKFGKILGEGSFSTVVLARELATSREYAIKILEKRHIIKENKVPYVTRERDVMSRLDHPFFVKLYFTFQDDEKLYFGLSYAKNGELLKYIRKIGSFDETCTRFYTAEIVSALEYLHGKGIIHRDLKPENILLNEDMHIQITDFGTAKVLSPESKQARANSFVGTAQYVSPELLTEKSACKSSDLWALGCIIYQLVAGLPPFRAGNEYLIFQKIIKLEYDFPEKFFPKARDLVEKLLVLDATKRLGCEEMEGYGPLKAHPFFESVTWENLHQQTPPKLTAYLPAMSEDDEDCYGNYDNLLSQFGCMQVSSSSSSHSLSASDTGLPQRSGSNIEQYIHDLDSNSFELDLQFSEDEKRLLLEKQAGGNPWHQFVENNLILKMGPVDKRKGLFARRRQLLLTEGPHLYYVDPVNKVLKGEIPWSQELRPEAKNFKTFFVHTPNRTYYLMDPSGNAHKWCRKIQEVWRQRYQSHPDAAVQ

The target in assay [13] is T2, Serine/threonine-protein kinase PLK4 (Homo sapiens) (UniProt O00444).
T2 sequence (whole entry): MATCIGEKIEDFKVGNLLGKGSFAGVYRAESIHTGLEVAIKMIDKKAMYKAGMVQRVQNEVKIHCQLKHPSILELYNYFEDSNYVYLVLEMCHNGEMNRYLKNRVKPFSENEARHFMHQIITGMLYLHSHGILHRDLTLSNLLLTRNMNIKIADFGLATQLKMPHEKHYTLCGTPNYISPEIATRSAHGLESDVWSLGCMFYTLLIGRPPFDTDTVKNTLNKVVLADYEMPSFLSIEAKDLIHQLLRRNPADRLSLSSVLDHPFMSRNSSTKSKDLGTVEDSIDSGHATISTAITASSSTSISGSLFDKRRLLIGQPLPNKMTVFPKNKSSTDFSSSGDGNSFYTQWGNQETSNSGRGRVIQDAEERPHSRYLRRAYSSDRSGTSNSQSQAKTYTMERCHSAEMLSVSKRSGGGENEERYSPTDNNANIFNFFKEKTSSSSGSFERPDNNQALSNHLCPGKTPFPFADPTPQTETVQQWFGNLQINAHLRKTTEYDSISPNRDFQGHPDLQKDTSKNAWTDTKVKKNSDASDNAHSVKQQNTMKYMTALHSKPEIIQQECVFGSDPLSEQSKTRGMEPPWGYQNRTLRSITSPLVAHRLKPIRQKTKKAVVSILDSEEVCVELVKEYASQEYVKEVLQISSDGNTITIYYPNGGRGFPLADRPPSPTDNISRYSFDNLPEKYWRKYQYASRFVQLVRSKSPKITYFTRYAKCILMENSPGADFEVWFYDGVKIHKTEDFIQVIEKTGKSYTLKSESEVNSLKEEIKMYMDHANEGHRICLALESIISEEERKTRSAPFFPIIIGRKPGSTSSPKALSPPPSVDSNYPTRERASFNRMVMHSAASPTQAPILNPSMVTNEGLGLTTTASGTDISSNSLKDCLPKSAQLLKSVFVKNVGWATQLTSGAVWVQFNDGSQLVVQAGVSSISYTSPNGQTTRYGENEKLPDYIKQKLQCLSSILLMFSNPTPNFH

Assay [14] concerns the target Serine/threonine-protein kinase 16 (Homo sapiens) (UniProt O75716).
In assay [15] the target is T3, Serine/threonine-protein kinase 17A (Homo sapiens) (UniProt Q9UEE5).
T3 sequence (whole entry): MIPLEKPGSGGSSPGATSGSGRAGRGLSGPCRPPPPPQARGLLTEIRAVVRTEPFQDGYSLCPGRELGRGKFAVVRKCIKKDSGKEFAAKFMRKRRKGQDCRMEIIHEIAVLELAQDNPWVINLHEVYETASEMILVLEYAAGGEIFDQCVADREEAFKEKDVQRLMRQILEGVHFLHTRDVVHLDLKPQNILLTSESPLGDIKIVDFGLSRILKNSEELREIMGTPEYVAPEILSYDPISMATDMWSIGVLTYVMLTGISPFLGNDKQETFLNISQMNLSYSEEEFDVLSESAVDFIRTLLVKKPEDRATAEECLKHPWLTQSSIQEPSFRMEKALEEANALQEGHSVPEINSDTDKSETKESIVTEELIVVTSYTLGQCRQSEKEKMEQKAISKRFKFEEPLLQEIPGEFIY

The target of assay [16] is Serine/threonine-protein kinase VRK2 (Homo sapiens) (UniProt Q86Y07).
The target of assay [17] is Serine/threonine-protein kinase 25 (Homo sapiens) (UniProt O00506).

Molecules are shown by their SMILES.

Sequence of Serine/threonine-protein kinase OSR1 (Homo sapiens) (O95747 2-527 limits assumed): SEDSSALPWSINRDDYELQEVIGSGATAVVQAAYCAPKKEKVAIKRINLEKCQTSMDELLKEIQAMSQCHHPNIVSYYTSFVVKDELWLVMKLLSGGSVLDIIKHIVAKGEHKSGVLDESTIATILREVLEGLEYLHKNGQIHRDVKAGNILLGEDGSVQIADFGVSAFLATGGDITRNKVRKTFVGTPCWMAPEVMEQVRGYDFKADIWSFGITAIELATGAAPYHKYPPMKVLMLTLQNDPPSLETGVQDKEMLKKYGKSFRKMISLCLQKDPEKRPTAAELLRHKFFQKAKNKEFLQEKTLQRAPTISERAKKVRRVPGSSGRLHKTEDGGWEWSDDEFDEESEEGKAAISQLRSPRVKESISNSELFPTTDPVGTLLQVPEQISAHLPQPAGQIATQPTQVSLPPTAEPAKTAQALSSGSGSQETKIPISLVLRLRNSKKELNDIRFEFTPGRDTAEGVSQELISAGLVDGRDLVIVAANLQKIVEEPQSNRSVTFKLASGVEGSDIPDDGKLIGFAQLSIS
Sequence of Dual specificity protein kinase CLK1 (Homo sapiens) (P49759 whole entry, looked up): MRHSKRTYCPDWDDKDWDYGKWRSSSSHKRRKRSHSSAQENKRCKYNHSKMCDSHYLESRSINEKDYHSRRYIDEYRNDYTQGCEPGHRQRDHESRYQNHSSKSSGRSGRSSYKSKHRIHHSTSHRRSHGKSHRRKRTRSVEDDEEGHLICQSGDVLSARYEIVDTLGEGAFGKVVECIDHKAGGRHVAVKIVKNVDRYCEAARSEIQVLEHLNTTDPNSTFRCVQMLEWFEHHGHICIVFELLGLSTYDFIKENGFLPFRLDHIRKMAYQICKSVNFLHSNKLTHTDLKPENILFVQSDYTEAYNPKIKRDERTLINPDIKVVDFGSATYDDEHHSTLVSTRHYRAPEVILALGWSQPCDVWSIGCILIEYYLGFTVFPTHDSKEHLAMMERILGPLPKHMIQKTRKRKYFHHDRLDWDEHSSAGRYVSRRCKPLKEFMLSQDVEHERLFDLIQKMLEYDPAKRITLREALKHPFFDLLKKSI
Sequence of Calcium/calmodulin-dependent protein kinase kinase 2 (Q96RR4 2-588 limits assumed): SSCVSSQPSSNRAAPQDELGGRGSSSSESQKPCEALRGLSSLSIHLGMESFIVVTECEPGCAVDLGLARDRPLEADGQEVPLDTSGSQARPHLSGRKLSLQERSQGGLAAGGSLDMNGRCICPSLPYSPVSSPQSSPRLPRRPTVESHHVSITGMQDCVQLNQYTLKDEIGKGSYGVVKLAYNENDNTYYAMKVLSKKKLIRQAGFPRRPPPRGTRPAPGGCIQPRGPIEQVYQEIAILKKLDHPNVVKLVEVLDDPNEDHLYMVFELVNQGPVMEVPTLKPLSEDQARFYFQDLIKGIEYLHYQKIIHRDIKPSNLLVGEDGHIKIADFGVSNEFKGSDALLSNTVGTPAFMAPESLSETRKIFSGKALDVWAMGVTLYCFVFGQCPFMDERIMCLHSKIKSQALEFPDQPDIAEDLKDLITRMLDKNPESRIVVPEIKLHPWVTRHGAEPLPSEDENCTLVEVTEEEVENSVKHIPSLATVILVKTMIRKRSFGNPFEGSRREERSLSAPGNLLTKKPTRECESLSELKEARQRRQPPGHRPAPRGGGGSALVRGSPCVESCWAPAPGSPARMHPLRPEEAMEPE
Sequence of Serine/threonine-protein kinase Nek6 (Homo sapiens) (Q9HC98 whole entry): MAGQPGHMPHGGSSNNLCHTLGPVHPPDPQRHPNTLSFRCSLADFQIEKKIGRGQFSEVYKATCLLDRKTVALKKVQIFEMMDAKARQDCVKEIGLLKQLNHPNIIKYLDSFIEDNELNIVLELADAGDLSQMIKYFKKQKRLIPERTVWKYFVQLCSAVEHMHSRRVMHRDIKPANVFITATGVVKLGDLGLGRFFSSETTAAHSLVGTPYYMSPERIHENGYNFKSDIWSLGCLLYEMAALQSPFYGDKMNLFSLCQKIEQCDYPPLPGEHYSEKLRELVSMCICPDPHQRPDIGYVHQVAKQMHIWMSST
Sequence of Serine/threonine-protein kinase VRK2 (Homo sapiens) (Q86Y07 whole entry): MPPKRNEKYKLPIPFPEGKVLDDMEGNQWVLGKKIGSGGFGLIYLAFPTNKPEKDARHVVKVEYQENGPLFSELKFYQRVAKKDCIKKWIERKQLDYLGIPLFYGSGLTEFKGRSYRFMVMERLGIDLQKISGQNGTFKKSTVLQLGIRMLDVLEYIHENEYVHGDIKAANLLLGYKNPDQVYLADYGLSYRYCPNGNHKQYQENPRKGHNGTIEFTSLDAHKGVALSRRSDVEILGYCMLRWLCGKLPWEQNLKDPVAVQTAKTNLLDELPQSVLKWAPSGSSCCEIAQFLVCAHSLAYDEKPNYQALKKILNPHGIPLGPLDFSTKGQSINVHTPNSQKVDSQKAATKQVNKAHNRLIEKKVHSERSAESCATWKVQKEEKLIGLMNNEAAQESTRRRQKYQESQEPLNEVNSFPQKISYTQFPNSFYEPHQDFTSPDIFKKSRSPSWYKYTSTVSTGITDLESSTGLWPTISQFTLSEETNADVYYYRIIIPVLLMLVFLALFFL
Sequence of Serine/threonine-protein kinase 25 (Homo sapiens) (O00506 whole entry, looked up): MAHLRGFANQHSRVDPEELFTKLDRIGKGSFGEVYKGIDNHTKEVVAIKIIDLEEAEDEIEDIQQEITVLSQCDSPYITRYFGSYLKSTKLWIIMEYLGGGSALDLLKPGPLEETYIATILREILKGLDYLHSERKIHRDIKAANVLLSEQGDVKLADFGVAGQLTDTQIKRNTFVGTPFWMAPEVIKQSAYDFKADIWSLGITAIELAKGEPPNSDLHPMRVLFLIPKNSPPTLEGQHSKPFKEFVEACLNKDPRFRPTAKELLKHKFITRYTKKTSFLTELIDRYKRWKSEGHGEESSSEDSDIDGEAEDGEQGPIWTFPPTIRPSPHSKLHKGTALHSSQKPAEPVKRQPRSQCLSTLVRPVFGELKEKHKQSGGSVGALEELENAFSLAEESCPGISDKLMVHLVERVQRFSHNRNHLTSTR
Sequence of Calcium/calmodulin-dependent protein kinase type II subunit delta (Homo sapiens) (Q13557 whole entry): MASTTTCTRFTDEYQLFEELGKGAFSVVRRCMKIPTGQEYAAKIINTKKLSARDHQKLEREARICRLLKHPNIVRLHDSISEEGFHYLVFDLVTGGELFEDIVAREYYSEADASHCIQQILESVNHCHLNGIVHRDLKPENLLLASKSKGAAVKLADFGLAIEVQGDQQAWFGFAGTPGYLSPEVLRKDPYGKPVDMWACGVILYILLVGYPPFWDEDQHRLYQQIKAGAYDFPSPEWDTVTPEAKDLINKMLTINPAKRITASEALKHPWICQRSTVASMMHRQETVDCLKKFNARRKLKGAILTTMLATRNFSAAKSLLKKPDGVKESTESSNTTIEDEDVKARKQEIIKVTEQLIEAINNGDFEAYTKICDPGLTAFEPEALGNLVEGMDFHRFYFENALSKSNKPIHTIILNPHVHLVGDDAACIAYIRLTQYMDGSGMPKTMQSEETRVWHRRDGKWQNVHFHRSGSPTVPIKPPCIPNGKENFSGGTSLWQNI
Sequence of Dual specificity protein kinase CLK2 (Homo sapiens) (P49760 whole entry, looked up): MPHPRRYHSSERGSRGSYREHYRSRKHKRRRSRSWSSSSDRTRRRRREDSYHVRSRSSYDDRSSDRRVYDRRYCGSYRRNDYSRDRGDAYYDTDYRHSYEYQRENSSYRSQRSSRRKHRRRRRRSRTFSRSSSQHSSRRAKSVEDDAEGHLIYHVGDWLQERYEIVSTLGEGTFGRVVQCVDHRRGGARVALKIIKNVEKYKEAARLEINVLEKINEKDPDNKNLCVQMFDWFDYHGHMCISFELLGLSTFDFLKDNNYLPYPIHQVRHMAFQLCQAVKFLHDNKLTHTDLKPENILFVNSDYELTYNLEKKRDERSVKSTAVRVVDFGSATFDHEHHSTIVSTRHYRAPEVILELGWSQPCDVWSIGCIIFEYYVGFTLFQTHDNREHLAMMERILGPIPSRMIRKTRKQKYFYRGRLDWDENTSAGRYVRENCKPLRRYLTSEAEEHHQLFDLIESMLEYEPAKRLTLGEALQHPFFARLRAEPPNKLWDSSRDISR
Sequence of Serine/threonine-protein kinase 16 (Homo sapiens) (O75716 whole entry): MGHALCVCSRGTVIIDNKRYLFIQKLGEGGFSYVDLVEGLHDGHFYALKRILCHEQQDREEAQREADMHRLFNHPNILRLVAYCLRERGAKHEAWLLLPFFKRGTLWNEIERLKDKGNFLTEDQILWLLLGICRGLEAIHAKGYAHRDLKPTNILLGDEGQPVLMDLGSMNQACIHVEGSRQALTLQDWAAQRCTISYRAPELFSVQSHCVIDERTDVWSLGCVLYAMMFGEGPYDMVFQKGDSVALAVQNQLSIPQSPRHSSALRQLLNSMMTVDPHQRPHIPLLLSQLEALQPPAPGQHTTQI
Sequence of Casein kinase I isoform gamma-3 (Homo sapiens) (Q9Y6M4 whole entry, looked up, canonical isoform): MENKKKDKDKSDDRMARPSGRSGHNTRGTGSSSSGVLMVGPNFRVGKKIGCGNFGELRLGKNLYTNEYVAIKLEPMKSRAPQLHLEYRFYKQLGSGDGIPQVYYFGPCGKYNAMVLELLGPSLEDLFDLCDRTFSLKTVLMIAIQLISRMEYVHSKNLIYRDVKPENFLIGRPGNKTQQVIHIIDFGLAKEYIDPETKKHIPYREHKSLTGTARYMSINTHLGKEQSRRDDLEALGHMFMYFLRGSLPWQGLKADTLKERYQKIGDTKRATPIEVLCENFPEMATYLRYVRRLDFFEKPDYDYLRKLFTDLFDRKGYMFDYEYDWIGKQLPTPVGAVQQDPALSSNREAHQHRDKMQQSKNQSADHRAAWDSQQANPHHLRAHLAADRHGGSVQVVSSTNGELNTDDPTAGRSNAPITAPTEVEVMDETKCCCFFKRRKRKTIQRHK
Sequence of Cyclin-dependent kinase-like 1 (Homo sapiens) (Q00532 whole entry): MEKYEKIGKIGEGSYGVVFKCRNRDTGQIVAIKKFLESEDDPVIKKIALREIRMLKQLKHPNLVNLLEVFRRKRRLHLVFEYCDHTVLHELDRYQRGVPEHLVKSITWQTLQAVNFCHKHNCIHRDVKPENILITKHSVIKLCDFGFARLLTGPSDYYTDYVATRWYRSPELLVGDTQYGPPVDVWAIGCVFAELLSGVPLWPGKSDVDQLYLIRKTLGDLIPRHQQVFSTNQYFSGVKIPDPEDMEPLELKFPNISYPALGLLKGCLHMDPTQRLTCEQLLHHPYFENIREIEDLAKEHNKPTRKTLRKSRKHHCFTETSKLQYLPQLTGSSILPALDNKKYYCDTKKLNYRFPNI

By ΔTm is commonly meant the shift of the melting midpoint relative to a reference. Turning to `NC1=N/C(=C2/CCNC(=O)c3[nH]ccc32)C(=O)N1` [DEBROMOHYMENIALDISINE], the ΔTm in [1] came to 0.1 °C; in assay [2], 0.1 °C; in [3] it was 1.4 °C; in assay [4], 0.3 °C; in assay [5], 6 °C; in assay [6], 3.7 °C. Moreover, the ΔTm is 4.5 °C in [7]; 3.6 °C in [8]; 2.4 °C in assay [9]; -0.5 °C in [10]; 0.4 °C in assay [11]; 0 °C in assay [12]. In addition, the ΔTm stood at 0.9 °C in assay [13]; 0.4 °C in assay [14]; 10.2 °C in assay [15]; 0.7 °C in assay [16]; 1.7 °C in [17].
`COc1ccc2c(c[n+](C)c3c4cc5c(cc4ccc23)OCO5)c1OC` [CHELERYTHRINE CHLORIDE]: the ΔTm in assay [1] is 0.6 °C; in [2], -0.8 °C; in assay [3], -1.6 °C; in assay [4], -3.5 °C; in assay [5] it was -4.4 °C; in [6] it was -0.2 °C. For the same compound, the shift in melting temperature (ΔTm) was -1 °C in assay [7]; 0 °C in assay [8]; 0.2 °C in [9]; -2.5 °C in assay [10]; -2.6 °C in assay [11]; -0.7 °C in [12]. The ΔTm is -3.1 °C in assay [13]; -0.4 °C in assay [14]; -0.8 °C in assay [15]; 0 °C in [16]; -0.3 °C in assay [17].
`N#CCCc1ccc2c(c1)-c1[nH]c3ccc([N+](=O)[O-])cc3c1CC(=O)N2` [ALSTERPAULLONE 2]: the ΔTm was 0.4 °C in assay [1]; -0.3 °C in [2]; 2.3 °C in assay [3]; 0.5 °C in assay [4]; 3.1 °C in assay [5]; 1.4 °C in assay [6]. The ΔTm in [7] is 2.3 °C; in assay [8] it was 2.4 °C; in [9], 1.6 °C; in assay [10], 0.8 °C; in [11], 0.8 °C; in assay [12] it was -0.4 °C. Also, the ΔTm in [13] is 10.3 °C; in assay [14], 3 °C; in assay [15] it was 9.6 °C; in [16], 0.7 °C; in assay [17] it was 4.2 °C.
As to `O=S(=O)(c1cccc2c(Cl)cccc12)N1CCCNCC1`, the ΔTm in assay [1] is 0.5 °C; in [2], 0.5 °C; in assay [3], -0.8 °C; in assay [4], 0.3 °C; in assay [5], 2 °C; in [6], 0.6 °C. Besides, the ΔTm in assay [7] was -0.2 °C; in assay [8], 0.2 °C; in [9], 0.1 °C; in assay [10], 0 °C; in assay [11] it was -0.5 °C; in [12], 0.1 °C. Besides, the ΔTm in assay [13] amounted to 0.4 °C; in [14] it was 1.1 °C; in assay [15], 0.7 °C; in [16], 0 °C; in assay [17], 0.2 °C.
With `CN(C)CCCn1cc(C2=C(c3c[nH]c4ccccc34)C(=O)NC2=O)c2ccccc21` [GF-109203], the ΔTm in assay [1] came out at 2.4 °C; in assay [2], 1.1 °C; in [3], 2.6 °C; in assay [4], 0.7 °C; in assay [5], 6.3 °C; in assay [6] it was 4.1 °C. Besides, the shift in melting temperature (ΔTm) is 2.7 °C in [7]; 1 °C in assay [8]; 0.3 °C in [9]; 0.9 °C in assay [10]; 2.4 °C in [11]; -0.2 °C in assay [12]. Also, the thermal shift (ΔTm) was found to be 3 °C in assay [13]; 2.1 °C in assay [14]; 1.3 °C in [15]; 0.9 °C in assay [16]; 2.7 °C in [17].
Regarding `CC(C)(C)n1nc(-c2ccc(Cl)cc2)c2c(N)ncnc21`, the thermal shift (ΔTm) in assay [1] is 0.5 °C; in assay [2], -0.1 °C; in assay [3] it was 1 °C; in assay [4], -0.4 °C; in assay [5] it was 2.1 °C; in assay [6], 1.4 °C. Besides, the shift in melting temperature (ΔTm) was 0.7 °C in [7]; 1 °C in [8]; 0.6 °C in assay [9]; 0.2 °C in assay [10]; 1.2 °C in [11]; -0.1 °C in assay [12]. For the same compound, the ΔTm was determined as 4.1 °C in assay [13]; 1 °C in assay [14]; 0.1 °C in assay [15]; 0.3 °C in assay [16]; 1.2 °C in assay [17].
Turning to `Cc1nc2sccn2c(=O)c1CCN1CCC(=C(c2ccccc2)c2ccc(F)cc2)CC1`, the ΔTm in assay [1] is 1.3 °C; in assay [2], -0.4 °C; in [3], 0.6 °C; in assay [4] it was 0.4 °C; in [5] it was 6.5 °C; in [6], 2.8 °C. The ΔTm is 3 °C in assay [7]; -0.2 °C in assay [8]; 0.3 °C in assay [9]; 0.1 °C in assay [10]; 1 °C in assay [11]; -0.8 °C in assay [12]. For the same compound, the ΔTm stood at 2.8 °C in [13]; 3.1 °C in assay [14]; 8.8 °C in [15]; 0.2 °C in assay [16]; 0.3 °C in assay [17].
In the case of `CCOC(=O)c1c(C)[nH]c(/C=C2\C(=O)Nc3ccccc32)c1C`, the ΔTm is -0.6 °C in [1]; 0.4 °C in assay [2]; 1.4 °C in assay [3]; 0.5 °C in assay [4]; -1.1 °C in assay [5]; 0.6 °C in [6]. The shift in melting temperature (ΔTm) in [7] is -0.1 °C; in assay [8], -11.4 °C; in [9], 0.3 °C; in assay [10], 0.1 °C; in assay [11] it was -0.1 °C; in assay [12], 0.2 °C. The ΔTm in assay [13] worked out at 2.3 °C; in assay [14], 0.6 °C; in assay [15], 4.5 °C; in assay [16], 0.2 °C; in assay [17], 0.6 °C.

The values above are taken from ChEMBL document CHEMBL1145498, “A systematic interaction map of validated kinase inhibitors with Ser/Thr kinases” (Proc Natl Acad Sci U S A, 2007).
